Series [1] has as its system proteases in rabbit reticulocyte extract. The settings on record: extract pre-treated with inhibitor, then R6; MALDI.
Method: In this experiment, protease inhibitors were tested to inhibit the degradation of the peptide R6 (described above). In one experiment, 10 μL of rabbit reticulocyte extract was pre-treated by incubating with a specific protease inhibitor such as ebelactone or 2-LeuLeuNVa-CHO for 10-15 min. Following pretreatment, peptide R6 was added to above translation mix and incubated for 10 min at 30° C. The reaction was terminated by addition of 100 μL of 100 mM EDTA and the solution was immediately applied to the microcolumn containing 1 μL of Sigma ANTI-FLAG beads. The beads were then washed with 50 μL of 20 mM Tris-HCl, pH 7.2 and the bound peptide was eluted with approximately 4 μL of matrix solution (CHCA/acetonitrile/TFA) directly onto a MALDI plate. In the control experiment, extract pre-treated with buffer was used and processed as described above.
2 μL of the above protease inhibitor solution was added to 10 μL of the translation mixture.
For the next series, the system named is protein synthesis. The series is described as follows: Effect of protease inhibitors on protein synthesis in the translation system. Type of series: biochemical.
Series [2] has as its system protease activity of E. coli translation extract. The series is described as follows: Mass spectrometry assay of inhibition of R6 degradation in E. coli translation extract. The following applies: extract pre-treated with inhibitor, then R6; MALDI.
Method: In this experiment, protease inhibitors were tested to inhibit the degradation of the peptide R6 (described above). […] Following pretreatment, peptide R6 was added to above translation mix and incubated for 10 min at 30° C. The reaction was terminated by addition of 100 μL of 100 mM EDTA and the solution was immediately applied to the microcolumn containing 1 μL of Sigma ANTI-FLAG beads. The beads were then washed with 50 μL of 20 mM Tris-HCl, pH 7.2 and the bound peptide was eluted with approximately 4 μL of matrix solution (CHCA/acetonitrile/TFA) directly onto a MALDI plate. In the control experiment, extract pre-treated with buffer was used and processed as described above. Similar experiments were carried out using E. coli translation extract.
For series [3], the system named is proteolysis in PURE I reconstituted E. coli translation system. The series is classed as biochemical.
Series [4] relates to rabbit reticulocyte lysate, wheat germ extract, E. coli S30 extract. The following applies: within several minutes after incubation with the translation mixtures.
Method: 100 picomoles of the synthetic R6 peptide in 1 microliter of water is added to 5 ul of a test solution and incubated for 20 minutes (or 10 minutes) at 37 degrees. 50 ul of PBS is then added to the test mixture and the resulting solution is passed over a 1 microliter anti-FLAG microcolumn (which recognizes the epitope sequence at the N terminus of the R6 peptide). The column is washed with 50 ul of deionized water and the bound peptides are eluted directly onto the maldi plate using 1 microliter of CHCA matrix in 50% acetonitrile/0.2% TFA/49.8% deionized water. The intact R6 peptide and degradation products are detected by Maldi-Tof mass spectrometry in positive ion linear mode.
Series [5] can be described thus: heat denatured rabbit reticulocyte extract (by boiling at 100° C. for 5 min in presence of SDS). The following applies: 30° C.
Series [6] is described as follows: zonally purified E. coli ribosomes.
The nature of series [7]: rabbit reticulocyte lysate (RRL extract). The following applies: 30° C., up to 5 min.
Series [8] in a line: Solution B of the PURE kit (Post-Genome Institute). The settings on record: 37 degrees, up to 20 minutes (or 10 minutes).
A short description of series [9]: PURE I reconstituted E. coli translation system, all components except the DNA. The following applies: 37° C., up to 15 min.
Series [10] relates to protein synthesis in rabbit reticulocyte lysate. Type of series: biochemical.

“Also recorded” adds a separate entry of the source. Like-named read-outs stand apart in the source and are kept apart here. Square brackets hold non-standard residues; d marks the D form. Peptide text beside a SMILES is read from it. * marks the point of attachment. Nva = CCC[C@H](N)C(=O)O; Cbz = O=C(OCc1ccccc1)*

Method for Amber-PURE: In order to remove the protease activity from solution B, 100 ul of solution B was added to 200 ul of deionized water and spun through a YM100 Microcon filter with a 100 kDa cut-off (Millipore, Inc) at 10,000 rpm for 5 minutes in a benchtop microfuge at room temperature. […] A 10 ul aliquot contains 3 ul of diluted and filtered solution B, 7 ul of solution A and 10 picomoles of zonally purified ribosomes.
In this example, the protease-depleted system is used to produce the reference peptide (R6) by in vitro translation using DNA coding for the R6 peptide.

For Ebelactone, in series [1], the “inhibition of R6 degradation (protease activity) in rabbit reticulocyte extract” value is “only weak protease inhibition”.
As for aprotinin, the “inhibition of protein synthesis” value with protein synthesis is on record as “inhibit protein synthesis”. The “inhibition of protease activity (R6 degradation) in E. coli translation extract” value in series [2] is recorded as “significant inhibition”.
With “R6: protease-sensitive peptide, sequence MDYKDDDDKRRRRRRFFF (SEQ ID NO:152), FLAG epitope at the N-terminus (N-terminal FLAG epitope)”, in the series on PURE, the “peptide products obtained by in vitro translation” value is on record as “correspond to degradation products”. Moreover, the “intact peptide after incubation with PURE I mixture” value in [3] (15 min, 37° C., no inhibitor) is reported as “disappearance of the intact R6 peptide”. For the same compound, the “peptide product obtained by in vitro translation” value in the series with Amber-PURE was “intact patent peptide”. The “degradation of sub-nanomolar amounts of peptide” value in series [4] is given as “complete degradation”.
For the compound MYTDIEMNRLGK, the not cleaved entry in [5] is “retains complete peptide signal”.
Consider MDYKDDDDKRRRRRRFFF, for which, in series [6], the not cleaved entry was “devoid of protease activity”. For the same compound, the cleaved bond entry is listed as “Phe-Phe, minor, 1 min; also recorded: Arg-Arg, 1 min” in series [7] and “R-R” in series [8]. Further, the fragment found result in series [9] was “MDYKDDDDKRRRRR, major, 15 min”.
Take `NCCc1ccc(S(=O)(=O)F)cc1` [AEBSF]: the “inhibition of R6 proteolysis in PURE I” value in series [3] (inhibitor pre-incubated 15-30 min, R6 15 min at 37° C.) was “excellent inhibition”. For the same compound, the “inhibition of protein synthesis” value in the series with protein synthesis (if used together with "Pefabloc protector") is listed as “could also inhibit protein synthesis”.
For the compound `CCC[C@@H](C=O)NC(=O)[C@H](CC(C)C)NC(=O)[C@H](CC(C)C)NC(=O)OCc1ccccc1` [2-LeuLeuNvaCHO] (Cbz-Leu-Leu-[Nva]-aldehyde), the “inhibition of R6 degradation (protease activity) in rabbit reticulocyte extract” value in [1] is listed as “significant reduction in protease activity”.
Consider `CC(C)C[C@H](NC(=O)[C@@H](NC(=O)N[C@@H](Cc1ccccc1)C(=O)O)[C@@H]1CCN=C(N)N1)C(=O)N[C@H](C=O)Cc1ccccc1` [Chymostatin], for which the “inhibition of protease activity (R6 degradation) in E. coli translation extract” value in [2] is reported as “only weakly inhibited”.
Turning to `C[C@@H]1C[C@@H]([C@H](O)CC2CC(=O)NC(=O)C2)C(=O)[C@@H](C)C1` [cycloheximide], the “inhibition of protein synthesis” value in series [10] was “completely inhibited”.

The record behind these values is US7563598B2 (Ambergen, Inc., priority 2004, dated 2009).
